Measurements as given in publication PMC11950852, “Diversity Scale of Library Matters: Impact of mRNA Library Diversity Scales on the Discovery of Macrocyclic Peptides Targeting a Protein by the RaPID System” (ACS Central Science, 2025).
pKd: −log10 of the molar value. Where a SMILES comes first, the peptide text is derived from it. Bridges are numbered along the chain shown (N, C = ends). [ ]: non-standard residue; d: D form.

Biological target: Fc-fused MET (His-/hFc-tagged human MET ectodomain) (Homo sapiens, UniProt P08581)
Assay: SPR binding kinetics of selected macrocyclic peptides to Fc-fused MET
Details: for kd / pKd / ka / kd (quoted in text): SPR conditions as E1; for kon: pH 7.4, read-out: ka; for pKd: KD, 1:1 binding model

Structure (SMILES)	kd [s⁻¹]	kon [M⁻¹ s⁻¹]	pKd	ka	kd (quoted in text)	fold slower kd compared to 6–1 (ratio of SPR kd values) [fold]	kd (quoted in text) (listed as 8–2)	fold slower kd than other species of the E8 library (other species kd = ∼50 × 10^–3 s^–1) [fold]
CC(C)C[C@@H]1NC(=O)[C@H](Cc2ccc(O)cc2)NC(=O)[C@H](Cc2c[nH]c3ccccc23)NC(=O)[C@H](CO)NC(=O)[C@H](Cc2ccc(O)cc2)NC(=O)CSC[C@@H](C(=O)NCC(N)=O)NC(=O)[C@H](Cc2ccccc2)NC(=O)[C@H](CCC(=O)O)NC(=O)[C@H](Cc2ccccc2)NC(=O)[C@H](CCCCN)NC(=O)[C@H](CCCCN)NC(=O)[C@H](Cc2c[nH]c3ccccc23)NC(=O)[C@H](CCC(N)=O)NC(=O)[C@H](C)NC(=O)[C@H](CCC(N)=O)NC(=O)[C@H](Cc2c[nH]c3ccccc23)NC(=O)[C@H](CC(N)=O)NC1=O [6-1] ({CH2CO}-YSWYLNWQAQWKKFEFCG-NH2; thioether N-17)	0.0518	244000	6.67	2.44 × 10^5 M^–1 s^–1	51.8 × 10^–3 s^–1	–	–	–
CC(C)C[C@@H]1NC(=O)[C@H]([C@@H](C)O)NC(=O)[C@H](CCCCN)NC(=O)[C@H](C)NC(=O)[C@H](Cc2c[nH]c3ccccc23)NC(=O)[C@H](CCCCN)NC(=O)[C@H](C)NC(=O)[C@H](C(C)C)NC(=O)[C@H](CC(N)=O)NC(=O)[C@H]([C@@H](C)O)NC(=O)[C@H](Cc2c[nH]c3ccccc23)NC(=O)[C@H](CC(N)=O)NC(=O)[C@H](Cc2ccc(O)cc2)NC(=O)[C@H](Cc2ccc(O)cc2)NC(=O)[C@H](Cc2ccccc2)NC(=O)[C@H](Cc2ccc(O)cc2)NC(=O)CSC[C@@H](C(=O)NCC(N)=O)NC1=O [6-2] ({CH2CO}-YFYYNWTNVAKWAKTLCG-NH2; thioether N-17)	0.0074	72500	–	0.725 × 10^5 M^–1 s^–1	7.4 × 10^–3 s^–1	7	–	–
CC(C)[C@@H]1NC(=O)[C@H](CCC(=O)O)NC(=O)[C@H](Cc2c[nH]cn2)NC(=O)[C@H]([C@@H](C)O)NC(=O)[C@H](CCCNC(=N)N)NC(=O)[C@H](CCCNC(=N)N)NC(=O)[C@H](CC(N)=O)NC(=O)[C@H](Cc2ccccc2)NC(=O)[C@H](CCC(N)=O)NC(=O)[C@H](CCCNC(=N)N)NC(=O)[C@@H](Cc2ccc(O)cc2)NC(=O)CSC[C@@H](C(=O)NCC(N)=O)NC(=O)[C@H](CC(=O)O)NC(=O)[C@H](CCCNC(=N)N)NC(=O)[C@H](CC(N)=O)NC(=O)[C@H](Cc2c[nH]c3ccccc23)NC1=O [aMD4, reference compound] ({CH2CO}-[dY]RQFNRRTHEVWNRDCG-NH2; thioether N-16)	0.00676	1.84e+06	8.44	–	–	–	–	–
C[C@@H]1NC(=O)CNC(=O)[C@H](Cc2ccc(O)cc2)NC(=O)[C@H](CCC(=O)O)NC(=O)[C@H](CCCCN)NC(=O)[C@H](Cc2c[nH]c3ccccc23)NC(=O)[C@H](CCCNC(=N)N)NC(=O)CNC(=O)[C@H](CC(=O)O)NC(=O)[C@H](Cc2ccccc2)NC(=O)[C@H]([C@@H](C)O)NC(=O)[C@H](Cc2ccc(O)cc2)NC(=O)[C@H](Cc2ccc(O)cc2)NC(=O)[C@H](Cc2c[nH]c3ccccc23)NC(=O)[C@H](Cc2ccc(O)cc2)NC(=O)CSC[C@@H](C(=O)NCC(N)=O)NC(=O)[C@H](C)NC1=O [8-1] ({CH2CO}-YWYYTFDGRWKEYGAACG-NH2; thioether N-17)	0.0427	1.38e+06	7.51	13.8 × 10^5 M^–1 s^–1	42.7 × 10^–3 s^–1	–	–	–
CC(C)C[C@@H]1NC(=O)[C@H](Cc2ccc(O)cc2)NC(=O)[C@H](CCC(=O)O)NC(=O)[C@H](CC(=O)O)NC(=O)[C@H](CCCNC(=N)N)NC(=O)[C@H](Cc2ccc(O)cc2)NC(=O)[C@H](Cc2c[nH]c3ccccc23)NC(=O)[C@H](Cc2ccc(O)cc2)NC(=O)[C@H](Cc2ccc(O)cc2)NC(=O)[C@H](Cc2c[nH]c3ccccc23)NC(=O)[C@H](Cc2c[nH]c3ccccc23)NC(=O)[C@H](Cc2ccc(O)cc2)NC(=O)CSC[C@@H](C(=O)NCC(N)=O)NC(=O)[C@H](CCCNC(=N)N)NC(=O)[C@H]([C@@H](C)O)NC(=O)[C@H](CCCNC(=N)N)NC(=O)[C@H](Cc2c[nH]c3ccccc23)NC1=O [10-6] ({CH2CO}-YWWYYWYRDEYLWRTRCG-NH2; thioether N-17)	0.00489	22300	–	–	–	–	–	–
CC(C)[C@@H]1NC(=O)[C@H](CCCCN)NC(=O)[C@H](CC(=O)O)NC(=O)CNC(=O)[C@H](CC(=O)O)NC(=O)[C@H](CCCNC(=N)N)NC(=O)CNC(=O)[C@H](CC(N)=O)NC(=O)[C@H](Cc2c[nH]c3ccccc23)NC(=O)[C@H](Cc2c[nH]cn2)NC(=O)[C@H](Cc2ccc(O)cc2)NC(=O)[C@H](Cc2ccc(O)cc2)NC(=O)CSC[C@@H](C(=O)NCC(N)=O)NC(=O)[C@H](C(C)C)NC(=O)[C@H](C(C)C)NC(=O)[C@H](Cc2c[nH]c3ccccc23)NC(=O)[C@H](CCC(=O)O)NC1=O [8-2] ({CH2CO}-YYHWNGRDGDKVEWVVCG-NH2; thioether N-17)	0.0103	475000	7.67	–	~10 × 10^–3 s^–1	–	10.3 × 10^–3 s^–1	5

Further lines, with some results ahead:

kd [s⁻¹]	kon [M⁻¹ s⁻¹]	Structure (SMILES)	pKd	ka	kd (quoted in text)	fold slower kd compared to 6–1 (ratio of SPR kd values) [fold]	kd (quoted in text) (listed as 8–2)	fold slower kd than other species of the E8 library (other species kd = ∼50 × 10^–3 s^–1) [fold]
0.000739	257000	CC(C)C[C@@H]1NC(=O)[C@H](CCCCN)NC(=O)CNC(=O)[C@H](Cc2ccccc2)NC(=O)CNC(=O)[C@H](Cc2ccc(O)cc2)NC(=O)[C@H](C(C)C)NC(=O)[C@H](Cc2c[nH]c3ccccc23)NC(=O)[C@H](Cc2ccc(O)cc2)NC(=O)CSC[C@@H](C(=O)NCC(N)=O)NC(=O)[C@H](Cc2ccccc2)NC(=O)[C@H](C)NC(=O)[C@H](CCCNC(=N)N)NC(=O)[C@H](Cc2c[nH]c3ccccc23)NC(=O)[C@H](CC(=O)O)NC(=O)[C@H](CC(N)=O)NC(=O)[C@H](CC(N)=O)NC1=O [14-1] ({CH2CO}-YWVYGFGKLNNDWRAFCG-NH2; thioether N-17)	–	–	–	–	–	–
0.00254	79500	CC[C@H](C)[C@@H]1NC(=O)[C@H](Cc2ccc(O)cc2)NC(=O)CSC[C@@H](C(=O)NCC(N)=O)NC(=O)[C@@H]2CCCN2C(=O)[C@H](CCCNC(=N)N)NC(=O)[C@H](C(C)C)NC(=O)[C@H](Cc2ccccc2)NC(=O)[C@H](Cc2c[nH]c3ccccc23)NC(=O)[C@H](CC(=O)O)NC(=O)[C@H](CCCCN)NC(=O)[C@H](CO)NC(=O)[C@H](C)NC(=O)[C@H](Cc2ccc(O)cc2)NC(=O)[C@H](C)NC(=O)[C@H](Cc2ccccc2)NC(=O)[C@H](Cc2c[nH]c3ccccc23)NC(=O)[C@H](CO)NC1=O [12-1] ({CH2CO}-YISWFAYASKDWFVRPCG-NH2; thioether N-17)	–	–	2.54 × 10^–3 s^–1	–	–	–
0.00564	179000	CC[C@H](C)[C@@H]1NC(=O)[C@H](Cc2ccc(O)cc2)NC(=O)CSC[C@@H](C(=O)NCC(N)=O)NC(=O)[C@H](CCCNC(=N)N)NC(=O)[C@H](C(C)C)NC(=O)[C@H](Cc2ccc(O)cc2)NC(=O)[C@H](C(C)C)NC(=O)[C@H](Cc2c[nH]c3ccccc23)NC(=O)[C@H](CO)NC(=O)[C@H](CCCCN)NC(=O)[C@H](CO)NC(=O)[C@H](CC(=O)O)NC(=O)[C@H](Cc2ccc(O)cc2)NC(=O)[C@H](C(C)C)NC(=O)[C@H](Cc2ccc(O)cc2)NC(=O)[C@H](Cc2c[nH]c3ccccc23)NC(=O)[C@H](CCC(=O)O)NC1=O [14-6] ({CH2CO}-YIEWYVYDSKSWVYVRCG-NH2; thioether N-17)	–	–	–	–	–	–
0.00198	798000	CC(C)[C@@H]1NC(=O)[C@H](C)NC(=O)[C@H](CC(=O)O)NC(=O)[C@H](Cc2ccccc2)NC(=O)[C@H](CC(=O)O)NC(=O)[C@H](CCCNC(=N)N)NC(=O)CNC(=O)[C@H]([C@@H](C)O)NC(=O)[C@H](Cc2c[nH]c3ccccc23)NC(=O)[C@H](CO)NC(=O)[C@H](Cc2ccc(O)cc2)NC(=O)[C@H](Cc2ccc(O)cc2)NC(=O)CSC[C@@H](C(=O)NCC(N)=O)NC(=O)[C@H](CCCCN)NC(=O)[C@H](CC(N)=O)NC(=O)[C@H](Cc2c[nH]c3ccccc23)NC(=O)[C@H](CCCCN)NC1=O [14-4] ({CH2CO}-YYSWTGRDFDAVKWNKCG-NH2; thioether N-17)	–	–	–	–	–	–
0.00182	464000	CC[C@H](C)[C@@H]1NC(=O)[C@H](C(C)C)NC(=O)[C@H](CO)NC(=O)[C@H](CC(=O)O)NC(=O)[C@H](C(C)C)NC(=O)[C@H](CC(=O)O)NC(=O)[C@H](CCCCN)NC(=O)CNC(=O)[C@H](CO)NC(=O)[C@H](Cc2c[nH]c3ccccc23)NC(=O)[C@H](CO)NC(=O)[C@H](Cc2ccc(O)cc2)NC(=O)[C@H](Cc2ccc(O)cc2)NC(=O)CSC[C@@H](C(=O)NCC(N)=O)NC(=O)[C@H](CC(N)=O)NC(=O)[C@H](CC(N)=O)NC(=O)[C@H](Cc2c[nH]c3ccccc23)NC1=O [14-2] ({CH2CO}-YYSWSGKDVDSVIWNNCG-NH2; thioether N-17)	–	–	–	–	–	–
0.002	130000	CC(C)C[C@@H]1NC(=O)[C@H](CO)NC(=O)[C@H](Cc2ccccc2)NC(=O)[C@H](Cc2ccc(O)cc2)NC(=O)[C@H](Cc2c[nH]c3ccccc23)NC(=O)[C@H](CCCCN)NC(=O)[C@H](CCCCN)NC(=O)[C@H](CO)NC(=O)[C@H](CC(=O)O)NC(=O)[C@H](Cc2ccc(O)cc2)NC(=O)[C@H](CCC(=O)O)NC(=O)[C@H](Cc2c[nH]cn2)NC(=O)[C@H](Cc2c[nH]c3ccccc23)NC(=O)[C@H](C(C)C)NC(=O)[C@H](CC(C)C)NC(=O)[C@H](Cc2ccc(O)cc2)NC(=O)CSC[C@@H](C(=O)NCC(N)=O)NC1=O [12-5] ({CH2CO}-YLVWHEYDSKKWYFSLCG-NH2; thioether N-17)	–	–	–	–	–	–
0.00297	84900	CC(C)C[C@@H]1NC(=O)[C@H](CO)NC(=O)[C@H](Cc2c[nH]c3ccccc23)NC(=O)[C@H](CC(N)=O)NC(=O)[C@H](CCCCN)NC(=O)[C@H](CO)NC(=O)[C@H](CC(=O)O)NC(=O)[C@H](Cc2ccccc2)NC(=O)[C@H](CCC(=O)O)NC(=O)[C@H](CO)NC(=O)[C@H](Cc2c[nH]c3ccccc23)NC(=O)[C@H](CO)NC(=O)[C@H](CC(C)C)NC(=O)[C@H](Cc2ccc(O)cc2)NC(=O)CSC[C@@H](C(=O)NCC(N)=O)NC(=O)[C@H](Cc2ccc(O)cc2)NC(=O)[C@H](C)NC1=O [14-3] ({CH2CO}-YLSWSEFDSKNWSLAYCG-NH2; thioether N-17)	–	–	–	–	–	–
